Usually EC50 stands for the concentration needed to bring the measured effect to its halfway point. One may read the IC50 as the midpoint of a concentration-inhibition curve. A low value points to higher potency.

These results are taken from PubChem BioAssay AID179 (DTP/NCI, 2004).

Structures are written as SMILES. Active and inactive are the calls of the source.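 The calls were made as follows: active = compounds giving half or more protection of infected cells from virus-caused growth loss, again on retest; inactive = the rest.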 Where a SMILES comes first, the peptide text is derived from it. The star is where a group is joined. Cbz = O=C(OCc1ccccc1)*

For this test, the system named is CEM cells HIV-1 protection, formazan growth assay. Description: NCI AIDS Antiviral Assay. Particulars: for IC50: measured here: growth of uninfected CEM cells. In outline: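 Human CEM cells, uninfected and HIV-1-infected, received five drug concentrations, and growth was read by soluble formazan assay. Compounds giving at least 50% protection were retested; reproducible 100% protection defined confirmed active.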

`O=C(NN=C1CCCCC1)NN=C1CCCCC1`: the EC50 is above 100 µM and the IC50 is above 100 µM.
On to `C=CCN1CCC(C(=O)CC)(c2ccccc2)CC1`, for which the EC50 was above 355 µM and the half-maximal inhibitory concentration (IC50) worked out at 166 µM.
On the same counts, the results for `CCc1c(C)c(C#N)c(=S)n(C2OC(COC(C)=O)C(OC(C)=O)C(OC(C)=O)C2OC(C)=O)c1-c1ccccc1` (stereo unspecified) are above 200 µM and 102 µM.
On the same counts, the results for `O=C(CCCn1ccnc1[N+](=O)[O-])NCCn1cncc1[N+](=O)[O-]` are above 200 µM and above 200 µM.
The corresponding values for `C[CH2][Sn]([CH2]C)([S]CCS(=O)(=O)O)[S]CCS(=O)(=O)O` are above 200 µM and 3.72 µM.
As to `Cc1c([O-])c([O-])c(C)c2c1OCO2.[C-]#[O+].[C-]#[O+].[C-]#[O+].[Re].c1ccc([PH+](c2ccccc2)c2ccccc2)cc1`, the EC50 was above 15.1 µM and the IC50 is 6.46 µM.
As to `O=C1NCN(C2CCCCC2)CN1`, the EC50 was above 200 µM and the IC50 is above 200 µM.
Regarding `CC(C)C1OCC(CO)CO1` (stereo unspecified), the EC50 was above 200 µM and the IC50 is above 200 µM.
For `CCC[N+]12CC=C(CO)C1C(O)CC2` (stereo unspecified), the EC50 is above 891 µM and the IC50 is above 891 µM.
As for `Cc1ccc(N(C(=[As]c2ccccc2)C(C)(C)C)[Si](C)(C)C)cc1` (stereo unspecified), the EC50 was above 18.2 µM and the IC50 is above 18.2 µM.
As for `[N-]=[N+]=CC(=O)OCCCCl`, the EC50 was above 200 µM and the IC50 was above 200 µM.
As for `CC(=O)OC12c3ccccc3C1CCCCCC21OCCCO1` (stereo unspecified), the EC50 is above 200 µM and the IC50 is above 200 µM.
Regarding `O=C(O)c1cc(S(=O)(=O)O)c2cccnc2c1O`, the EC50 is above 200 µM and the IC50 was above 200 µM.
Take `CN1C(=O)C23CCCN2C(=O)C1(C)SC(=N)S3` (stereo unspecified): the EC50 was above 200 µM and the IC50 was above 200 µM.
Regarding `O=C(Nc1ccc([N+](=O)[O-])cn1)Nc1ccccc1F`, the EC50 is above 200 µM and the IC50 was above 200 µM.
Turning to `O=C(NNC(=O)c1cccc(C(=O)NNC(=O)c2ccc(Cl)c(Cl)c2)n1)c1ccc(Cl)c(Cl)c1`, the EC50 was above 200 µM and the IC50 worked out at 1.07 µM.
On the same counts, the results for `CC(=O)Nc1ccc(S(=O)(=O)[N-]C2C(=O)c3ccccc3C(=O)C2[n+]2ccccc2)cc1` (stereo unspecified) are above 200 µM and 37.2 µM.
For the molecule `C/C=C(\NC(=O)C(CCCCN)NC(=O)C(C)NC(=O)C1CSC(C)C(NC(=O)C2CSCC(NC(=O)C(C)NC(=O)C(N)C(C)CC)C(=O)NC(CCCCN)C(=O)NC(Cc3ccccc3)C(=O)NC(CC(C)C)C(=O)N2)C(=O)N2CCCC2C(=O)NCC(=O)N1)C(=O)NCC(=O)NC1CSCC2NC(=O)C(Cc3ccc(O)cc3)NC(=O)C(CSC=CNC2=O)NC(=O)C(CC(N)=O)NC(=O)C(Cc2ccccc2)NC1=O` (stereo unspecified), the outcome was inactive.
Take `CN1CCOC1(C)c1ccccc1O` (stereo unspecified): the EC50 was above 200 µM and the IC50 is above 200 µM.
With `CC(=O)OCCCCN1C(=O)CSc2ccccc21`, the EC50 is above 200 µM and the IC50 was above 200 µM.
As to `COc1ccc2nc3ccccc3c(NCCCCCCN(CCCl)CCCl)c2c1`, the EC50 is above 0.2 µM and the IC50 was found to be 0.162 µM.
Regarding `CSc1nc(=O)c(C#N)c(-c2ccccc2)n1C1OC(COC(C)=O)C(OC(C)=O)C(OC(C)=O)C1OC(C)=O` (stereo unspecified), the EC50 is above 200 µM and the IC50 is 93.3 µM.
With `CCN(CC)CCNc1ccc(CO)c2sc3ccccc3c(=O)c12`, the outcome was inactive and the IC50 is 2690 µM.
On to `Nc1ncnc2c1ccn2COC(CO)CO`, for which the EC50 is above 200 µM and the IC50 is above 200 µM.
As to `CC(=O)c1nc2ccccc2n1C(C)C(=O)c1ccccc1` (stereo unspecified), the EC50 is above 200 µM and the IC50 is 11.2 µM.
The corresponding values for `COc1ccc(OC)c2c3c(ccc12)C1(CCc2c(C)cccc21)OC3=O` (stereo unspecified) are above 55 µM and 8.13 µM.
Consider `CC(C)(C)C(=O)[O-].N.N.N.N.N.[Co+3].[O-][Cl+3]([O-])([O-])[O-]`, for which the outcome was inactive.
For the molecule `COC(=O)c1cc(C(=O)OC)c(CC(=O)C(=O)NC2C3CC4CC(C3)CC2C4)nc1CC(=O)C(=O)NC1C2CC3CC(C2)CC1C3` (stereo unspecified), the EC50 was above 282 µM and the IC50 was above 282 µM.
Turning to `CC(NC(=O)N(C)C)NC(=O)N(C)C`, the outcome was inactive.
With `CC(F)(C(N)=O)C(N)=O`, the EC50 was above 200 µM and the IC50 was above 200 µM.
Turning to `O=C(O)c1cc2ccccc2c(S(=O)(=O)O)c1O`, the EC50 was above 200 µM and the IC50 is above 200 µM.
In the case of `O=C1CCCc2cc3c(cc21)CC1(C3)Cc2ccc3c(c2C1)C(=O)CCC3` (stereo unspecified), the EC50 is above 200 µM and the IC50 came to 16.2 µM.
On the same counts, the results for `CCCCCCCCCCCCCCCCCc1nc(C#N)c(N)o1` are above 200 µM and 25.1 µM.
On the same counts, the results for `O=[N+]([O-])c1ccc2c([N+](=O)[O-])ccc3c2c1CC3` are above 200 µM and 21.9 µM.
The corresponding values for `COC(=O)c1ccccc1C1CN=NC12Cc1cccc(C)c1C2=O` (stereo unspecified) are above 200 µM and 57.5 µM.
`O=C(O)CCCc1ccc([As](=O)(O)O)cc1[N+](=O)[O-]` came in with an EC50 above 200 µM and an IC50 above 200 µM.
Consider `ON1CCc2c([nH]c3ccccc23)C1c1ccccc1Br` (stereo unspecified), for which the outcome was inactive.
On to `Cc1ccc2c(c1)[nH]c(=S)n2/C=C1\C(=O)Oc2ccccc2C1=O`, for which the EC50 was above 200 µM and the IC50 came out at 36.3 µM.
On the same counts, the results for `CCC(C)C(N)C(=O)NC(CC(N)=O)C(=O)NC(CC(C)C)C(=O)NC(CCCCN)C(=O)NC(C)C(=O)NC(CC(C)C)C(=O)NC(C)C(=O)NC(C)C(=O)NC(CC(C)C)C(=O)NC(C)C(=O)NC(CCCCN)C(=O)NC(CCCCN)C(=O)NC(C(=O)NC(CC(C)C)C(N)=O)C(C)CC` (stereo unspecified) are 40.7 µM and 43.7 µM.
As for `N=C(N)SCc1ccc2c(c1)Sc1ccccc1O2`, the EC50 is above 200 µM and the IC50 was 11.7 µM.
The corresponding values for `CCOC(=O)C(/C(=N\NC(=O)OC)C(=O)Nc1cc(OC)ccc1OC)c1cnc2ccccc2n1` (stereo unspecified) are 81.3 µM and 138 µM.
In the case of `CC(=O)/C(=C(/Br)I)c1ccccc1`, the outcome was inactive.
Take `CCOC(=O)CC1c2ccc(O)cc2OC(=O)C1c1ccc([N+](=O)[O-])cc1` (stereo unspecified): the EC50 is above 200 µM and the IC50 was found to be 31.6 µM.
On the same counts, the results for `CC(C)CCCC(C)[C@H]1CC[C@H]2[C@@H]3CC[C@H]4C[C@@H](CCC=C(c5cc(Cl)c(O)c(C(=O)O)c5)c5cc(Cl)c(O)c(C(=O)O)c5)CC[C@]4(C)[C@H]3CC[C@]12C` (stereo partly specified) are 60.3 µM and 129 µM.
On the same counts, the results for `O=C(Cl)c1ccc([As](=O)(O)O)cc1` are above 200 µM and above 200 µM.
On the same counts, the results for `CCOC(=O)Cn1c2ccccc2c(=O)c2cc(C)c(C)c(C#N)c21` are above 21.4 µM and above 21.4 µM.
Take `COc1cc2c(cc1OC)C(=O)/C(=C/c1ccc(N(C)C)cc1)CC2`: the EC50 is above 155 µM and the IC50 was 110 µM.
On the same counts, the results for `O=C1/C(=C/c2ccc(Cl)cc2)NC(=S)N1CN1CCCCC1` are above 200 µM and 28.2 µM.
As to `CNC(=S)NNc1ncnc2c1c(-c1ccc(Cl)cc1)cn2-c1ccc(C)cc1`, the result was inactive.
For the molecule `O=C1C2C(C(=O)N1O)N(Cc1ccccc1)C(=O)N2Cc1ccccc1` (stereo unspecified), the EC50 is above 708 µM and the IC50 is above 708 µM.
As for `CN1CCN(c2[nH]c(=O)n(-c3ccccc3)c(=S)c2C#N)CC1`, the EC50 is above 200 µM and the IC50 was above 200 µM.
Regarding `NC(=O)N/N=C1/CCN2CCCc3cccc1c32`, the EC50 is above 200 µM and the IC50 was above 200 µM.
On to `Cc1ccc(NC(=O)c2c(N)c(C#N)c3n2CCC3)cc1`, for which the EC50 is above 200 µM and the 50% inhibitory concentration (IC50) is above 200 µM.
For `CCOC(=O)/C(C=Nc1c(C)n(C)n(-c2ccccc2)c1=O)=C(/O)c1ccccc1`, the EC50 is above 200 µM and the IC50 was above 200 µM.
In the case of `COc1cc2c(cc1OC)C(C#N)C2` (stereo unspecified), the EC50 was 1050 µM and the IC50 was 1320 µM.
The corresponding values for `NC1=NC2=c3ccccc3=C(c3cnccn3)C2(c2cnccn2)c2ccccc21` (stereo unspecified) are above 93.3 µM and 70.8 µM.
The corresponding values for `CCOC(=O)Nc1nc2c(s1)c([N+](=O)[O-])cn2C` are above 69.2 µM and 27.5 µM.
Regarding `CC1=N/C(=C\c2ccccc2)C(=O)O1`, the EC50 is above 20 µM and the IC50 was above 20 µM.
Consider `Cn1c2cc(O)cc(O)c2c(=O)c2c([N+](=O)[O-])cccc21`, for which the EC50 is above 141 µM and the IC50 is above 141 µM.
Take `CC(C)(C)C(=O)/C=C/c1ccc(Cl)cc1`: the EC50 is above 32.4 µM and the IC50 was above 32.4 µM.
`CCCC(=O)OCC(COC(=O)CCC)OC(=O)CCC`: the EC50 is above 200 µM and the IC50 was above 200 µM.
In the case of `COc1cccc([C@@]2(O)c3c(ccc(O)c3OC)[C@H]2OC)c1OC`, the EC50 is above 15.8 µM and the IC50 is above 15.8 µM.
For the molecule `CCC(C)C(NC(=O)C1CCCN1C(=O)OCc1ccccc1)C(=O)O` (stereo not drawn) (Cbz-Pro-Ile-OH; configuration not given here), the EC50 was above 692 µM and the IC50 was above 692 µM.
As to `CC(=O)CC(=O)Nc1ccccc1[N+](=O)[O-]`, the outcome was inactive.
With `CP(=O)(O)C(N)c1ccccc1` (stereo unspecified), the EC50 is above 200 µM and the IC50 is above 200 µM.
Consider `CO[C@@H]1[C@@H](OC2OC(C)C(OC3CC(C)(O)C(OC(=O)CC(C)C)C(C)O3)C(N(C)C)C2O)[C@@H](CC=O)C[C@@H](C)C(=O)/C=C/C2O[C@H]2C[C@@H](C)OC(=O)C[C@H]1OC(C)=O` (stereo partly specified), for which the EC50 was above 148 µM and the IC50 is 7.76 µM.
The corresponding values for `Cc1ccc(C)c(NC(=O)/C(=N\N)C(c2cnc3ccc([N+](=O)[O-])cc3n2)[N+](=O)[O-])c1` (stereo unspecified) are above 589 µM and 219 µM.
The corresponding values for `CCC(C(=O)NC1CN2CCC1CC2)c1ccccc1` (stereo unspecified) are above 200 µM and 174 µM.
On the same counts, the results for `CN1c2ccccc2S(=O)(=O)n2c(COc3ccccc3)nnc21` are above 200 µM and above 200 µM.
